# Test results taken from BindingDB's records for doi:10.1016/j.bmcl.2020.127533 (Glaxosmithkline, 2020).
# Molecular target: Methionine aminopeptidase 2 (Homo sapiens) (UniProt P50579)
# Assay: Inhibition of MetAP2 (unknown origin)
# Chain of Methionine aminopeptidase 2 (Homo sapiens) (P50579 whole entry, looked up): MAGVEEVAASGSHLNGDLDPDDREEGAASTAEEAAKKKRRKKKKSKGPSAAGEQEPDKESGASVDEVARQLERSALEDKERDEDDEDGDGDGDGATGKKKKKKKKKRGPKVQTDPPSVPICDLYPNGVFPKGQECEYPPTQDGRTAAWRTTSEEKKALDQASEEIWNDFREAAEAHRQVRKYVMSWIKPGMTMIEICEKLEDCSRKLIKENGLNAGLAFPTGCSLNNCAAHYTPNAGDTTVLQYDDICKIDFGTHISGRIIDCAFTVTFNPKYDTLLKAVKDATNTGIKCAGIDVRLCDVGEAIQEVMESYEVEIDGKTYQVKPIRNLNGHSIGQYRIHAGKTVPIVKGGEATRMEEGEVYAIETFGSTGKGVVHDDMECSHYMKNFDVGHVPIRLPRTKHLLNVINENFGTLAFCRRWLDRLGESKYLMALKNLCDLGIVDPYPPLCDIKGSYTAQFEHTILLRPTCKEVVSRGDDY
row,SMILES,IC50 [µM]
1,COc1ccc(-c2c(C(N)=O)[nH]c3ccc(Cl)cc23)cc1,0.126
2,CN(C)Cc1ccc(-c2c(C(N)=O)[nH]c3ccc(Cl)cc23)cc1,1
3,CC(C)Oc1ccccc1-c1c(C(N)=O)[nH]c2cc(F)c(Cl)cc12,0.005
4,NC(=O)c1[nH]c2ccc(Cl)cc2c1-c1ccccc1,0.316
5,CN1CCN(c2ccc(-c3c(C(N)=O)[nH]c4ccc(Cl)cc34)cc2)CC1,0.025
6,CC(C)Oc1cc(N2CCNCC2)ccc1-c1c(C(N)=O)[nH]c2cc(F)c(F)cc12,0.002
7,NC(=O)c1[nH]c2c(F)cc(Cl)cc2c1-c1ccccc1,0.631
8,NC(=O)c1[nH]c2cc(F)c(Cl)cc2c1-c1ccccc1,0.063
9,CC(C)Oc1cc(N2CCNCC2)ccc1-c1c(C(N)=O)[nH]c2cc(F)c(Cl)cc12,0.0032
10,NC(=O)c1[nH]c2ccc(Cl)cc2c1-c1ccc(C(=O)N2CCCC2)cc1,0.251
11,COc1ccccc1-c1c(C(N)=O)[nH]c2cc(F)c(Cl)cc12,0.0063
12,NC(=O)c1[nH]c2ccc(F)cc2c1-c1ccccc1,0.631
13,NC(=O)c1[nH]c2ccc(Cl)cc2c1-c1ccc(N2CCOCC2)cc1,0.05
14,NC(=O)c1[nH]c2ccc(Cl)cc2c1-c1ccc(-c2ccn[nH]2)cc1,0.251
15,NC(=O)c1[nH]c2ccc(Cl)c(F)c2c1-c1ccccc1,3.98
16,NC(=O)c1[nH]c2ccccc2c1-c1ccccc1,2.51
17,NC(=O)c1[nH]c2c(Cl)cccc2c1-c1ccccc1,7.94

# Continued by falling IC50, values first:
row,IC50 [µM],SMILES
1,20,O=C(O)c1[nH]c2ccc(Cl)cc2c1-c1ccccc1
2,6.31,NC(=O)c1[nH]c2cnccc2c1-c1ccccc1
3,1.58,CC(=O)c1[nH]c2ccc(Cl)cc2c1-c1ccccc1
4,1.26,NC(=O)c1[nH]c2ncc(Cl)cc2c1-c1ccccc1
5,0.501,N#Cc1ccc(-c2c(C(N)=O)[nH]c3ccc(Cl)cc23)cc1
6,0.398,NC(=O)c1[nH]c2ccc(Cl)cc2c1-c1ccc(Cl)cc1
7,0.398,NC(=O)c1[nH]c2ccc(Cl)cc2c1-c1ccccc1OC(F)(F)F
8,0.316,Cc1ccccc1-c1c(C(N)=O)[nH]c2ccc(Cl)cc12
9,0.1,COc1ccccc1-c1c(C(N)=O)[nH]c2ccc(Cl)cc12
10,0.1,CN(C)c1ccc(-c2c(C(N)=O)[nH]c3ccc(Cl)cc23)cc1
11,0.025,CC(C)Oc1ccccc1-c1c(C(N)=O)[nH]c2ccc(Cl)cc12
